Data reported in ChEMBL document CHEMBL4371065, “Design and synthesis of biaryloxazolidinone derivatives containing a rhodanine or thiohydantoin moiety as novel antibacterial agents against Gram-positive bacteria” (Bioorg Med Chem Lett, 2019).

Assays:
Staphylococcus aureus [1] = assay: Antibacterial activity against Staphylococcus aureus ATCC 29213 by broth liquid microdilution method; type: functional
Staphylococcus aureus [2] = assay: Antibacterial activity against methicillin-resistant Staphylococcus aureus by broth liquid microdilution method; type: functional
Staphylococcus aureus [3] = assay: Antibacterial activity against methicillin-sensitive Staphylococcus aureus by broth liquid microdilution method; type: functional
Enterococcus faecalis [4] = assay: Antibacterial activity against linezolid-resistant Enterococcus faecalis by broth liquid microdilution method; type: functional
Enterococcus faecium [5] = assay: Antibacterial activity against vancomycin-resistant Enterococcus faecium by broth liquid microdilution method; type: functional
Staphylococcus aureus [6] = assay: Antibacterial activity against clinical isolates of methicillin-resistant Staphylococcus aureus by broth liquid microdilution method; type: functional
Staphylococcus aureus [7] = assay: Antibacterial activity against clinical isolates of methicillin-sensitive Staphylococcus aureus by broth liquid microdilution method; type: functional
Enterococcus faecalis [8] = assay: Antibacterial activity against clinical isolates of linezolid-resistant Enterococcus faecalis by broth liquid microdilution method; type: functional
Enterococcus faecium [9] = assay: Antibacterial activity against clinical isolates of vancomycin-resistant Enterococcus faecium by broth liquid microdilution method; type: functional
Enterococcus faecalis [10] = assay: Potency index, ratio of linezolid MIC to compound MIC for clinical isolates of linezolid-resistant Enterococcus faecalis; type: functional
HepG2 = assay: Cytotoxicity against human HepG2 cells after 48 hrs by MTT assay; type: cell-based; conditions: HepG2, 48 h
MAO-A = target: T1, MAO-A (Homo sapiens, UniProt P21397); assay: Inhibition of recombinant human full length N-terminal FLAG-tagged MAO-A expressed in sf9 cells at 30 uM preincubated for 15 mins followed by substrate addition and measured after 60 mins by luminescence assay relative to control
T1 sequence (P21397 whole entry): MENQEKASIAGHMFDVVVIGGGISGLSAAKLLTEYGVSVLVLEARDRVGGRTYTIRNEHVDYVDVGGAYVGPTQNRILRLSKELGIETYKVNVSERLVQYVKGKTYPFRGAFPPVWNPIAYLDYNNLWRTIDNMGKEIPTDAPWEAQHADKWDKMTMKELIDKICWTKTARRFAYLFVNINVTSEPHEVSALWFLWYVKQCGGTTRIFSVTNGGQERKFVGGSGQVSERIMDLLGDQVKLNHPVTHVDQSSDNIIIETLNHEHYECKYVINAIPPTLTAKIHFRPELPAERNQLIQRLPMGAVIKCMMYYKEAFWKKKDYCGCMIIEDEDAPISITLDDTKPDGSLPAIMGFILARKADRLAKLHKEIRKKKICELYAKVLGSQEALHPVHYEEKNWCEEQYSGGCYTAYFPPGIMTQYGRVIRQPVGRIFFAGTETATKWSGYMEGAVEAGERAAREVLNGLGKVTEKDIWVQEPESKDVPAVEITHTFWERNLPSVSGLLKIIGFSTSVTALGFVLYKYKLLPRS

Staphylococcus aureus [11] = assay: Potency index, ratio of radezolid MIC to compound MIC for Staphylococcus aureus ATCC 29213; type: functional
Staphylococcus aureus [12] = assay: Potency index, ratio of radezolid MIC to compound MIC for methicillin-sensitive Staphylococcus aureus; type: functional
Enterococcus faecalis [13] = assay: Potency index, ratio of radezolid MIC to compound MIC for linezolid-resistant Enterococcus faecalis; type: functional
Enterococcus faecium [14] = assay: Potency index, ratio of radezolid MIC to compound MIC for vancomycin-resistant Enterococcus faecium; type: functional

CC(=O)NC[C@H]1CN(c2ccc(-c3ccc(/C=C4\SC(=S)N(CC(=O)O)C4=O)cc3)c(F)c2)C(=O)O1
1 mg/L: MIC (Staphylococcus aureus [1]) | MIC (Staphylococcus aureus [2]) | MIC (Staphylococcus aureus [3]) | MIC (Enterococcus faecalis [4]) | MIC (Enterococcus faecium [5])

CC(=O)NC[C@H]1CN(c2ccc(-c3ccc(/C=C4\SC(=S)N(C(C)C(=O)O)C4=O)cc3)c(F)c2)C(=O)O1 (stereo partly specified)
1 mg/L: MIC (Staphylococcus aureus [1]) | MIC (Staphylococcus aureus [2]) | MIC (Staphylococcus aureus [3]) | MIC (Enterococcus faecalis [4]) | MIC (Enterococcus faecium [5])

CC(=O)NC[C@H]1CN(c2ccc(-c3ccc(/C=C4\SC(=S)N(CCCN5CCCCC5)C4=O)cc3)c(F)c2)C(=O)O1
1 mg/L: MIC (Staphylococcus aureus [1]) | MIC (Staphylococcus aureus [2]) | MIC (Staphylococcus aureus [3]) | MIC (Enterococcus faecalis [4]) | MIC (Enterococcus faecium [5])

CCN(CC)CCCN1C(=O)/C(=C/c2ccc(-c3ccc(N4C[C@H](CNC(C)=O)OC4=O)cc3F)cc2)NC1=S
0.125 mg/L: MIC (Staphylococcus aureus [1]) | MIC (Staphylococcus aureus [2]) | MIC (Staphylococcus aureus [3]) | MIC (Enterococcus faecalis [4]) | MIC (Enterococcus faecium [5])
0.125 to 0.25 mg/L: MIC (Staphylococcus aureus [7]) | MIC (Enterococcus faecalis [8])
0.125 to 0.5 mg/L: MIC (Staphylococcus aureus [6])
64: Ratio (Enterococcus faecalis [10])
0.25 to 0.5 mg/L: MIC (Enterococcus faecium [9])
91 µM: IC50 (HepG2)
98%: inhibition at 1 h, 30 µM (MAO-A)

CCOC(=O)CN1C(=O)/C(=C/c2ccc(-c3ccc(N4C[C@H](CNC(C)=O)OC4=O)cc3F)cc2)SC1=S
1 mg/L: MIC (Staphylococcus aureus [1]) | MIC (Staphylococcus aureus [2]) | MIC (Staphylococcus aureus [3]) | MIC (Enterococcus faecalis [4]) | MIC (Enterococcus faecium [5])

CC(=O)NC[C@H]1CN(c2ccc(-c3ccc(/C=C4\NC(=S)N(CCCN5CCOCC5)C4=O)cc3)c(F)c2)C(=O)O1
2 mg/L: MIC (Staphylococcus aureus [1]) | MIC (Staphylococcus aureus [2]) | MIC (Staphylococcus aureus [3]) | MIC (Enterococcus faecalis [4]) | MIC (Enterococcus faecium [5])

CC(=O)NC[C@H]1CN(c2ccc(-c3ccc(/C=C4\NC(=S)N(CCCN5CCCCC5)C4=O)cc3)c(F)c2)C(=O)O1
1 mg/L: MIC (Staphylococcus aureus [1]) | MIC (Staphylococcus aureus [2]) | MIC (Staphylococcus aureus [3]) | MIC (Enterococcus faecalis [4]) | MIC (Enterococcus faecium [5])

CC(=O)NC[C@H]1CN(c2ccc(-c3ccc(/C=C4\SC(=S)N(C)C4=O)cc3)c(F)c2)C(=O)O1
0.25 mg/L: MIC (Staphylococcus aureus [1]) | MIC (Staphylococcus aureus [2]) | MIC (Staphylococcus aureus [3]) | MIC (Enterococcus faecalis [4]) | MIC (Enterococcus faecium [5])

CC(=O)NC[C@H]1CN(c2ccc(-c3ccc(/C=C4\SC(=S)N(C(C(=O)O)c5ccccc5)C4=O)cc3)c(F)c2)C(=O)O1 (stereo partly specified)
1 mg/L: MIC (Staphylococcus aureus [1]) | MIC (Staphylococcus aureus [2]) | MIC (Staphylococcus aureus [3]) | MIC (Enterococcus faecalis [4]) | MIC (Enterococcus faecium [5])

CC(=O)NC[C@H]1CN(c2ccc(-c3ccc(/C=C4\SC(=S)NC4=O)cc3)c(F)c2)C(=O)O1
1 to 2 mg/L: MIC (Staphylococcus aureus [7]) | MIC (Enterococcus faecalis [8]) | MIC (Enterococcus faecium [9])
63.9 µM: IC50 (HepG2)
0.125 mg/L: MIC (Staphylococcus aureus [1]) | MIC (Staphylococcus aureus [2]) | MIC (Staphylococcus aureus [3]) | MIC (Enterococcus faecalis [4]) | MIC (Enterococcus faecium [5])
99%: inhibition at 1 h, 30 µM (MAO-A)
4: Ratio (Staphylococcus aureus [11]) | Ratio (Staphylococcus aureus [12]) | Ratio (Enterococcus faecalis [13]) | Ratio (Enterococcus faecium [14])

CCN(CC)CCCN1C(=O)/C(=C/c2ccc(-c3ccc(N4C[C@H](CNC(C)=O)OC4=O)cc3F)cc2)SC1=S
0.5 mg/L: MIC (Staphylococcus aureus [1]) | MIC (Staphylococcus aureus [2]) | MIC (Staphylococcus aureus [3]) | MIC (Enterococcus faecalis [4]) | MIC (Enterococcus faecium [5])

CCN1C(=O)/C(=C/c2ccc(-c3ccc(N4C[C@H](CNC(C)=O)OC4=O)cc3F)cc2)SC1=S
0.5 mg/L: MIC (Enterococcus faecalis [4]) | MIC (Enterococcus faecium [5])
0.25 mg/L: MIC (Staphylococcus aureus [1]) | MIC (Staphylococcus aureus [2]) | MIC (Staphylococcus aureus [3])

CCN1C(=O)/C(=C/c2ccc(-c3ccc(N4C[C@H](CNC(C)=O)OC4=O)cc3F)cc2)NC1=S
0.25 mg/L: MIC (Staphylococcus aureus [1]) | MIC (Staphylococcus aureus [2]) | MIC (Staphylococcus aureus [3]) | MIC (Enterococcus faecalis [4]) | MIC (Enterococcus faecium [5])

CCCN1C(=O)/C(=C/c2ccc(-c3ccc(N4C[C@H](CNC(C)=O)OC4=O)cc3F)cc2)SC1=S
2 mg/L: MIC (Staphylococcus aureus [1]) | MIC (Staphylococcus aureus [2]) | MIC (Staphylococcus aureus [3]) | MIC (Enterococcus faecalis [4]) | MIC (Enterococcus faecium [5])

CCOC(=O)CN1C(=O)/C(=C/c2ccc(-c3ccc(N4C[C@H](CNC(C)=O)OC4=O)cc3F)cc2)NC1=S
1 mg/L: MIC (Staphylococcus aureus [1]) | MIC (Staphylococcus aureus [2]) | MIC (Staphylococcus aureus [3]) | MIC (Enterococcus faecalis [4]) | MIC (Enterococcus faecium [5])

CC(=O)NC[C@H]1CN(c2ccc(-c3ccc(/C=C4\NC(=S)N(C(C)C)C4=O)cc3)c(F)c2)C(=O)O1
0.5 mg/L: MIC (Enterococcus faecalis [4]) | MIC (Enterococcus faecium [5])
1 mg/L: MIC (Staphylococcus aureus [1]) | MIC (Staphylococcus aureus [2]) | MIC (Staphylococcus aureus [3])

CC(=O)NC[C@H]1CN(c2ccc(-c3ccc(/C=C4\NC(=S)NC4=O)cc3)c(F)c2)C(=O)O1
0.125 mg/L: MIC (Staphylococcus aureus [1]) | MIC (Staphylococcus aureus [2]) | MIC (Staphylococcus aureus [3]) | MIC (Enterococcus faecalis [4]) | MIC (Enterococcus faecium [5])
61.7 µM: IC50 (HepG2)
0.5 to 1 mg/L: MIC (Staphylococcus aureus [7])
0.25 to 0.5 mg/L: MIC (Enterococcus faecalis [8]) | MIC (Enterococcus faecium [9])
99%: inhibition at 1 h, 30 µM (MAO-A)

CC(=O)NC[C@H]1CN(c2ccc(-c3ccc(/C=C4\NC(=S)N(C)C4=O)cc3)c(F)c2)C(=O)O1
0.5 mg/L: MIC (Staphylococcus aureus [1]) | MIC (Staphylococcus aureus [2]) | MIC (Staphylococcus aureus [3]) | MIC (Enterococcus faecalis [4]) | MIC (Enterococcus faecium [5])

CCCN1C(=O)/C(=C/c2ccc(-c3ccc(N4C[C@H](CNC(C)=O)OC4=O)cc3F)cc2)NC1=S
2 mg/L: MIC (Staphylococcus aureus [1]) | MIC (Staphylococcus aureus [2]) | MIC (Staphylococcus aureus [3]) | MIC (Enterococcus faecalis [4]) | MIC (Enterococcus faecium [5])

CC(=O)NC[C@H]1CN(c2ccc(N3CCOCC3)c(F)c2)C(=O)O1 [LINEZOLID]
> 25 µM: IC50 (HepG2)
1 mg/L: MIC (Staphylococcus aureus [1]) | MIC (Staphylococcus aureus [2]) | MIC (Staphylococcus aureus [3])
76%: inhibition at 1 h, 30 µM (MAO-A)
1 to 4 mg/L: MIC (Staphylococcus aureus [7]) | MIC (Enterococcus faecium [9])
2 mg/L: MIC (Enterococcus faecium [5])
> 16 mg/L: MIC (Enterococcus faecalis [4]) | MIC (Enterococcus faecalis [8])

CC(=O)NC[C@H]1CN(c2ccc(-c3ccc(CNCc4cnn[nH]4)cc3)c(F)c2)C(=O)O1 [RADEZOLID]
0.5 mg/L: MIC (Staphylococcus aureus [1]) | MIC (Staphylococcus aureus [2]) | MIC (Staphylococcus aureus [3]) | MIC (Enterococcus faecalis [4]) | MIC (Enterococcus faecium [5])
